Data on twelve compounds can be found in PMC7531004, “Discovery of gramicidin A analogues with altered activities by multidimensional screening of a one-bead-one-compound library” (Nature Communications, 2020).

The nature of series [1]: H+/Na+ transport assay of bead-derived peptides (one-point).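 Note: relative to parent gramicidin A activity set to 1.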 The format is biochemical. Further details: key: relative activity; mean of two control wells = 1.00. The following applies: bead-derived peptide solution, EYPC/EYPG LUVs. An outline of the steps:
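Values are normalized fluorescence, with Triton X-100 defining 100% and untreated LUVs 0%, and the two control wells averaging 1.00. Vesicles carried 1.0 mM pyranine and included egg yolk phosphatidylglycerol. Peptides were incubated with them 30 min at room temperature.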

For series [2], the system named is P388 mouse leukemia cells. Conditions: 92 h. An outline of the steps:
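P388 cells at 1 × 10^4 cells/mL (final) were exposed to library peptides (stocks diluted 250-fold in RPMI1640/10% FBS) for 92 h at 37 °C, 5% CO2. Viable cells were counted by WST-1/1-methoxy PMS (4 h), absorbance 415 nm, and expressed as cell viability (%).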

In series [3] the test system is Streptococcus pyogenes SSI-9. As to the kind of experiment: Antibacterial activity assay of bead-derived peptides (three concentrations). The following applies: S. pyogenes, bead-derived peptide solution, three concentrations. It is filed as cell-based. Further details: key: +++: inhibition by the 640-fold diluted peptide solution; ++: inhibition by the 160-fold diluted solution; +: inhibition by the 40-fold diluted solution; -: no inhibition. An outline of the steps: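 Undiluted, 4-fold and 16-fold DMSO-diluted peptide stocks; S. pyogenes SSI-9, 2 × 10^5 CFU, cation-adjusted MHB (50 mg/L Ca2+, 25 mg/L Mg2+) + 5% laked horse blood; 37 °C, 18 h; readout = cell pellet visible or not.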

Where a SMILES comes first, the peptide text is derived from it. [ ]: non-standard residue; d: D form. The star is where a group is joined. NHCH2CH2OH = OCCN*; For = O=C*

`CNC(=O)C[C@@H](NC(=O)[C@H](Cc1c[nH]c2ccccc12)NC(=O)[C@@H](CC(C)C)NC(=O)[C@H](Cc1c[nH]c2ccccc12)NC(=O)[C@@H](CC(C)C)NC(=O)[C@H](Cc1c[nH]c2ccccc12)NC(=O)[C@H](NC(=O)[C@@H](NC(=O)[C@@H](CC(C)C)NC(=O)[C@H](C)NC(=O)[C@@H](CC(C)C)NC(=O)[C@H](C)NC(=O)CNC(=O)[C@@H](NC=O)C(C)C)C(C)C)C(C)C)C(=O)N[C@@H](Cc1c[nH]c2ccccc12)C(=O)NCCO` [compound 6829] (For-VGA[dL]A[dL]V[dV]W[dL]W[dL]W[dD](NHMe)W-NHCH2CH2OH): the “H+/Na+ transport activity normalized against the value of 1 (1.00)” value (shortened to “H+/Na+ transport activity normalized”) in series [1] amounted to 1.05. The same compound yielded a cell viability/% in series [2] of 100.0%. Besides, the antibacterial activity entry in series [3] is “-”.

As to `CNC(=O)C[C@@H](NC(=O)[C@@H](NC(=O)[C@@H](CC(C)C)NC(=O)[C@H](C)NC(=O)[C@@H](CC(C)C)NC(=O)[C@H](C)NC(=O)CNC(=O)[C@@H](NC=O)C(C)C)C(C)C)C(=O)N[C@@H](Cc1c[nH]c2ccccc12)C(=O)N[C@@H](C(=O)N[C@@H](Cc1c[nH]c2ccccc12)C(=O)N[C@@H](C(=O)N[C@@H](Cc1c[nH]c2ccccc12)C(=O)N[C@H](CC(C)C)C(=O)N[C@@H](Cc1c[nH]c2ccccc12)C(=O)NCCO)C(C)C)C(C)C` [compound 11228] (For-VGA[dL]A[dL]V[dD](NHMe)W[dV]W[dV]W[dL]W-NHCH2CH2OH), the “H+/Na+ transport activity normalized” value in series [1] is listed as 1.27. This compound also came in with a cell viability/% in series [2] of 76.4%. In series [3], the antibacterial activity result is “-”.

Consider `CC(C)C[C@@H](NC(=O)[C@H](C)NC(=O)CNC(=O)[C@@H](NC=O)C(C)C)C(=O)N[C@@H](C)C(=O)N[C@@H](C(=O)N[C@H](C(=O)N[C@H](CC(C)C)C(=O)N[C@@H](Cc1c[nH]c2ccccc12)C(=O)N[C@H](CC(C)C)C(=O)N[C@@H](Cc1c[nH]c2ccccc12)C(=O)N[C@H](CC(C)C)C(=O)N[C@@H](Cc1c[nH]c2ccccc12)C(=O)N[C@H](CC(C)C)C(=O)N[C@@H](Cc1c[nH]c2ccccc12)C(=O)NCCO)C(C)C)C(C)C` [compound 9628] (For-VGA[dL]A[dV]V[dL]W[dL]W[dL]W[dL]W-NHCH2CH2OH), for which the “H+/Na+ transport activity normalized” value in series [1] worked out at 1.16. Besides, in series [2], the cell viability/% was 0.0%. Besides, the antibacterial activity result in series [3] was “+”.

On to `CNC(=O)C[C@@H](NC(=O)[C@H](Cc1c[nH]c2ccccc12)NC(=O)[C@H](NC(=O)[C@H](Cc1c[nH]c2ccccc12)NC(=O)[C@@H](CC(C)C)NC(=O)[C@H](Cc1c[nH]c2ccccc12)NC(=O)[C@@H](CC(C)C)NC(=O)[C@@H](NC(=O)[C@@H](CC(C)C)NC(=O)[C@H](C)NC(=O)[C@@H](CC(C)C)NC(=O)[C@H](C)NC(=O)CNC(=O)[C@@H](NC=O)C(C)C)C(C)C)C(C)C)C(=O)N[C@@H](Cc1c[nH]c2ccccc12)C(=O)NCCO` [compound 10008] (For-VGA[dL]A[dL]V[dL]W[dL]W[dV]W[dD](NHMe)W-NHCH2CH2OH), for which the “H+/Na+ transport activity normalized” value in series [1] came to 1.15. In series [2], this compound registered a cell viability/% of 100.0%. Further, the antibacterial activity entry in series [3] is reported as “-”.

On to `CC(C)C[C@@H](NC(=O)[C@H](C)NC(=O)CNC(=O)[C@@H](NC=O)C(C)C)C(=O)N[C@@H](C)C(=O)N[C@H](CC(C)C)C(=O)N[C@H](C(=O)N[C@@H](C(=O)N[C@@H](Cc1c[nH]c2ccccc12)C(=O)N[C@@H](C(=O)N[C@@H](Cc1c[nH]c2ccccc12)C(=O)N[C@@H](C(=O)N[C@@H](Cc1c[nH]c2ccccc12)C(=O)N[C@H](CC(C)C)C(=O)N[C@@H](Cc1c[nH]c2ccccc12)C(=O)NCCO)C(C)C)C(C)C)C(C)C)C(C)C` [compound 12040] (For-VGA[dL]A[dL]V[dV]W[dV]W[dV]W[dL]W-NHCH2CH2OH), for which the “H+/Na+ transport activity normalized” value in series [1] was 1.07. The compound further gave a cell viability/% in series [2] of 100.0%. In addition, the antibacterial activity entry in series [3] is given as “+”.

As for `CNC(=O)C[C@@H](NC(=O)[C@H](Cc1c[nH]c2ccccc12)NC(=O)[C@H](NC(=O)[C@H](Cc1c[nH]c2ccccc12)NC(=O)[C@@H](CC(C)C)NC(=O)[C@H](Cc1c[nH]c2ccccc12)NC(=O)[C@H](NC(=O)[C@@H](NC(=O)[C@H](NC(=O)[C@H](C)NC(=O)[C@@H](CC(C)C)NC(=O)[C@H](C)NC(=O)CNC(=O)[C@@H](NC=O)C(C)C)C(C)C)C(C)C)C(C)C)C(C)C)C(=O)N[C@@H](Cc1c[nH]c2ccccc12)C(=O)NCCO` [compound 7948] (For-VGA[dL]A[dV]V[dV]W[dL]W[dV]W[dD](NHMe)W-NHCH2CH2OH), the “H+/Na+ transport activity normalized” value in series [1] worked out at 1.04. The cell viability/% in series [2] came out at 100.0%. The antibacterial activity result in series [3] is on record as “-”.

Consider `CC(C)C[C@@H](NC(=O)[C@H](C)NC(=O)[C@H](NC(=O)[C@H](C)NC(=O)CNC(=O)[C@@H](NC=O)C(C)C)C(C)C)C(=O)N[C@H](C(=O)N[C@@H](C(=O)N[C@@H](Cc1c[nH]c2ccccc12)C(=O)N[C@@H](C(=O)N[C@@H](Cc1c[nH]c2ccccc12)C(=O)N[C@H](CC(C)C)C(=O)N[C@@H](Cc1c[nH]c2ccccc12)C(=O)N[C@H](CC(C)C)C(=O)N[C@@H](Cc1c[nH]c2ccccc12)C(=O)NCCO)C(C)C)[C@H](C)O)C(C)C` [compound 7840] (For-VGA[dV]A[dL]V[dT]W[dV]W[dL]W[dL]W-NHCH2CH2OH), for which the “H+/Na+ transport activity normalized” value in series [1] is on record as 1.12. Besides, the cell viability/% in series [2] was determined as 100.0%. Besides, the antibacterial activity entry in series [3] is “-”.

On to `CC(C)C[C@@H](NC(=O)[C@H](C)NC(=O)[C@H](NC(=O)[C@H](C)NC(=O)CNC(=O)[C@@H](NC=O)C(C)C)C(C)C)C(=O)N[C@H](C(=O)N[C@H](CC(C)C)C(=O)N[C@@H](Cc1c[nH]c2ccccc12)C(=O)N[C@H](CC(C)C)C(=O)N[C@@H](Cc1c[nH]c2ccccc12)C(=O)N[C@@H](C(=O)N[C@@H](Cc1c[nH]c2ccccc12)C(=O)N[C@@H](C(=O)N[C@@H](Cc1c[nH]c2ccccc12)C(=O)NCCO)[C@H](C)O)C(C)C)C(C)C` [compound 5370] (For-VGA[dV]A[dL]V[dL]W[dL]W[dV]W[dT]W-NHCH2CH2OH), for which the “H+/Na+ transport activity normalized” value in series [1] is 1.18. The cell viability/% in series [2] was determined as 100.0%. Further, the antibacterial activity result in series [3] was “++”.

With `CC(C)C[C@@H](NC(=O)[C@H](C)NC(=O)[C@H](NC(=O)[C@H](C)NC(=O)CNC(=O)[C@@H](NC=O)C(C)C)C(C)C)C(=O)N[C@H](C(=O)N[C@@H](C(=O)N[C@@H](Cc1c[nH]c2ccccc12)C(=O)N[C@H](CC(C)C)C(=O)N[C@@H](Cc1c[nH]c2ccccc12)C(=O)N[C@H](CC(C)C)C(=O)N[C@@H](Cc1c[nH]c2ccccc12)C(=O)N[C@@H](C(=O)N[C@@H](Cc1c[nH]c2ccccc12)C(=O)NCCO)C(C)C)[C@H](C)O)C(C)C` [compound 8984] (For-VGA[dV]A[dL]V[dT]W[dL]W[dL]W[dV]W-NHCH2CH2OH), the “H+/Na+ transport activity normalized” value in series [1] was determined as 1.12. The same compound showed a cell viability/% in series [2] of 57.9%. Besides, the antibacterial activity entry in series [3] is on record as “-”.

For `CC(C)C[C@@H](NC(=O)[C@H](C)NC(=O)CNC(=O)[C@@H](NC=O)C(C)C)C(=O)N[C@@H](C)C(=O)N[C@H](CC(C)C)C(=O)N[C@H](C(=O)N[C@@H](C(=O)N[C@@H](Cc1c[nH]c2ccccc12)C(=O)N[C@@H](C(=O)N[C@@H](Cc1c[nH]c2ccccc12)C(=O)N[C@@H](C(=O)N[C@@H](Cc1c[nH]c2ccccc12)C(=O)N[C@H](CC(C)C)C(=O)N[C@@H](Cc1c[nH]c2ccccc12)C(=O)NCCO)C(C)C)[C@H](C)O)C(C)C)C(C)C` [compound 12081] (For-VGA[dL]A[dL]V[dV]W[dT]W[dV]W[dL]W-NHCH2CH2OH), in series [1], the “H+/Na+ transport activity normalized” value is on record as 1.01. Besides, the cell viability/% in series [2] amounted to 100.0%. For the same compound, in series [3], the antibacterial activity result is reported as “-”.

Take `CC(C)C[C@@H](NC(=O)[C@H](C)NC(=O)[C@H](NC(=O)[C@H](C)NC(=O)CNC(=O)[C@@H](NC=O)C(C)C)[C@H](C)O)C(=O)N[C@H](C(=O)N[C@H](CC(C)C)C(=O)N[C@@H](Cc1c[nH]c2ccccc12)C(=O)N[C@@H](C(=O)N[C@@H](Cc1c[nH]c2ccccc12)C(=O)N[C@H](CC(C)C)C(=O)N[C@@H](Cc1c[nH]c2ccccc12)C(=O)N[C@H](CC(C)C)C(=O)N[C@@H](Cc1c[nH]c2ccccc12)C(=O)NCCO)[C@H](C)O)C(C)C` [compound 5215] (For-VGA[dT]A[dL]V[dL]W[dT]W[dL]W[dL]W-NHCH2CH2OH): the “H+/Na+ transport activity normalized” value in series [1] turned out to be 1.33. Also, in series [2], the cell viability/% is on record as 100.0%. Further, the antibacterial activity result in series [3] is recorded as “-”.

In the case of `CC(C)C[C@@H](NC(=O)[C@H](C)NC(=O)CNC(=O)[C@@H](NC=O)C(C)C)C(=O)N[C@@H](C)C(=O)N[C@H](CC(C)C)C(=O)N[C@H](C(=O)N[C@@H](C(=O)N[C@@H](Cc1c[nH]c2ccccc12)C(=O)N[C@@H](C(=O)N[C@@H](Cc1c[nH]c2ccccc12)C(=O)N[C@@H](C(=O)N[C@@H](Cc1c[nH]c2ccccc12)C(=O)N[C@@H](C(=O)N[C@@H](Cc1c[nH]c2ccccc12)C(=O)NCCO)C(C)C)[C@H](C)O)C(C)C)C(C)C)C(C)C` [compound 2887] (For-VGA[dL]A[dL]V[dV]W[dV]W[dT]W[dV]W-NHCH2CH2OH), in series [1], the “H+/Na+ transport activity normalized” value stood at 1.01. In addition, in series [2], the cell viability/% was determined as 99.0%. In addition, in series [3], the antibacterial activity entry was “-”.
